# Results as given in patent US9023865B2, “Compounds that are ERK inhibitors” (Merck Sharp & Dohme Corp., priority 2011, dated 2015).
# Target: Active Human ERK2 (hERK2) (Homo sapiens (Human), UniProt P28482)
# Assay: Active Human ERK2 (hERK2) Activity Assay (IMAP-FP)
# Assay type: biochemical
# Conditions: phosphorylated active hERK2, 30 μM ATP; average; read-out: ERK 2 Human average IC50
# Procedure: Assays Active Human ERK2 (hERK2) Activity Assay:
# Activated ERK2 activity was determined in an IMAP-FP assay (Molecular Devices). […] The final reaction in each well of 25 μL consists of 0.5 nM hERK2, 900 nM unlabeled peptide, 80 nM labeled-peptide, and 30 μM ATP. Phosphorylation reactions were allowed to proceed for 60 minutes and were immediately quenched by the addition of […] IMAP detection beads (1:1000 dilutions) in IMAP binding buffer (Molecular Devices) with 24 mM NaCl. Plates were read on EnVision reader after 60 minutes binding equilibration using Fluorescence Polarization protocol (Perkin Elmer).
# Chain of Active Human ERK2 (hERK2) (P28482 whole entry): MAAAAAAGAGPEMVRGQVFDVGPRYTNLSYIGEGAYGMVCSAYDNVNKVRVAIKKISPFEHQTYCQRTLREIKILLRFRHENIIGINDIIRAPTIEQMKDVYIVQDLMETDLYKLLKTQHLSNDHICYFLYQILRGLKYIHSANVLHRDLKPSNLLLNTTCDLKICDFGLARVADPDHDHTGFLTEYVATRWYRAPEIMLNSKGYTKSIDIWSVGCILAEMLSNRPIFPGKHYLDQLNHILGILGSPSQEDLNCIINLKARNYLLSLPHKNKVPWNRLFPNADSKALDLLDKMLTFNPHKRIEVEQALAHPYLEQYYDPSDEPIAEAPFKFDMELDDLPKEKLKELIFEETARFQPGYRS
row,IC50,SMILES
1,0.514 nM,"C[C@@H](NC(=O)Nc1cc2[nH]nc(-c3cnn(C)c3)c2cn1)c1ccc(Cl)cc1 [Example 59, 1-[(1R)-1-(4-chlorophenyl)ethyl]-3-[3-(1-methyl-1H-pyrazol-4-yl)-1H-pyrazolo[4,3-c]pyridin-6-yl]urea]"
2,35 nM,"Cc1cc(-c2n[nH]c3cc(NC(=O)Nc4ccc(NCCc5ccccc5)nn4)ncc23)ccn1 [Example 55, 1-[3-(2-methylpyridin-4-yl)-1H-pyrazolo[4,3-c]pyridin-6-yl]-3-{6-[(2-phenylethyl)amino]pyridazin-3-yl}urea]"
3,4.87 nM,Cc1cc(-c2n[nH]c3cc(NC(=O)N[C@@H]4CCN(C)C4)ncc23)ccn1 [Example 596]
4,41.2 nM,Cc1cc(-c2n[nH]c3cc(NC(=O)N[C@H](c4ccccc4)[C@H]4CCCO4)ncc23)ccn1 [Example 551]
5,1.53 nM,Cc1cc(-c2n[nH]c3cc(NC(=O)NC(C)c4ccno4)ncc23)ccn1 (stereo not shown) [Example 497]
6,2.39 nM,Cc1cc(-c2n[nH]c3cc(NC(=O)NC(C)c4ccccc4OC(F)(F)F)ncc23)ccn1 (stereo not shown) [Example 524]
7,0.755 nM,CC[C@@H](NC(=O)Nc1cc2[nH]nc(-c3ccnc(C)c3)c2cn1)c1ccc(Cl)cc1 [Example 414]
8,6.09 nM,COCCNC(=O)Nc1cc2[nH]nc(-c3ccccc3)c2cn1 [Example 627]
9,0.85 nM,Cc1cc(-c2n[nH]c3cc(NC(=O)NCCc4cn[nH]c4)ncc23)ccn1 [Example 394]
10,9.59 nM,Cc1cc(-c2n[nH]c3cc(NC(=O)NC4CCOc5cc(F)ccc54)ncc23)ccn1 (stereo not shown) [Example 286]
11,6.25 nM,"Cc1cc(-c2n[nH]c3c(Cl)c(NC(=O)NCc4ccccc4)ncc23)ccn1 [Example 92, 1-benzyl-3-[7-chloro-3-(2-methylpyridin-4-yl)-1H-pyrazolo[4,3-c]pyridin-6-yl]urea]"
12,4.86 nM,Cc1cc(-c2n[nH]c3cc(NC(=O)NCCF)ncc23)ccn1 [Example 199]
13,0.405 nM,"C[C@@H](NC(=O)Nc1cc2[nH]nc(-c3ccc4nn(C)cc4c3)c2cn1)c1ccc(F)cc1 [Example 63, 1-[(1R)-1-(4-fluorophenyl)ethyl]-3-[3-(2-methyl-2H-indazol-5-yl)-1H-pyrazolo[4,3-c]pyridin-6-yl]urea]"
14,104 nM,Cc1cc(-c2n[nH]c3cc(NC(=O)NC(C)(C)CO)ncc23)ccn1 [Example 203]
15,31.1 nM,COC(=O)C(NC(=O)Nc1cc2[nH]nc(-c3ccnc(C)c3)c2cn1)C(F)(F)F (stereo not shown) [Example 457]
16,1.51 nM,Cc1cc(-c2n[nH]c3cc(NC(=O)N[C@H](C)c4ccncc4)ncc23)ccn1 [Example 236]
17,18.8 nM,Cc1cc(-c2n[nH]c3cc(NC(=O)N[C@H]4CN(C)C[C@@H]4c4ccccc4)ncc23)ccn1 [Example 182]
18,2.08 nM,Cc1cc(-c2n[nH]c3cc(NC(=O)N[C@@H]4CCSc5ccccc54)ncc23)ccn1 [Example 264]
19,1.58 nM,"Cc1cc(-c2n[nH]c3c(C)c(NC(=O)N[C@H](C)c4ccccc4)ncc23)ccn1 [Example 174, (R)-1-(7-Methyl-3-(2-methylpyridin-4-yl)-1H-pyrazolo[4,3-c]pyridin-6-yl)-3-(1-phenylethyl)urea]"
20,2.62 nM,Cc1cc(-c2n[nH]c3cc(NC(=O)NC[C@H]4COCCO4)ncc23)ccn1 [Example 549]

row,IC50,SMILES
1,14.5 nM,"C[C@@H](NC(=O)Nc1cc2[nH]nc(CC#N)c2cn1)c1ccccc1 [Example 559, (R)-1-(3-(cyanomethyl)-1H-pyrazolo[4,3-c]pyridin-6-yl)-3-(1-phenylethyl)urea]"
2,2.81 nM,Cc1cc(-c2n[nH]c3cc(NC(=O)NCC4(c5ccc(F)cc5)CC4)ncc23)ccn1 [Example 269]
3,0.479 nM,Cc1cc(-c2n[nH]c3cc(NC(=O)N[C@@H]4[C@@H](c5ccccc5)CN(C)[C@@H]4C)ncc23)ccn1 [Example 568]
4,2.76 nM,Cc1cc(-c2n[nH]c3cc(NC(=O)NCc4nccc5ccccc45)ncc23)ccn1 [Example 390]
5,0.715 nM,"CCNC(=O)[C@H]1C[C@@H]1c1n[nH]c2cc(NC(=O)N[C@H](COC)c3ccccc3)ncc12 [Example 170, (1S,2S)—N-ethyl-2-(6-(3-((S)-2-methoxy-1-phenylethyl)ureido)-1H-pyrazolo[4,3-c]pyridin-3-yl)cyclopropanecarboxamide]"
6,5.42 nM,Cc1cc(-c2n[nH]c3cc(NC(=O)NCc4ncn[nH]4)ncc23)ccn1 [Example 422]
7,5.54 nM,"C[C@@H](NC(=O)Nc1cc2[nH]nc(-c3ccc(-n4ccnn4)cc3)c2cn1)c1ccc(F)cc1 [Example 242, 1-[(1R)-1-(4-fluorophenyl)ethyl]-3-{3-[4-(1H-1,2,3-triazol-1-yl)phenyl]-1H-pyrazolo[4,3-c]pyridin-6-yl}urea]"
8,1.61 nM,Cc1cc(-c2n[nH]c3cc(NC(=O)N[C@@H]4CCS(=O)(=O)c5ccccc54)ncc23)ccn1 [Example 275]
9,5.39 nM,"Cc1cc(-c2n[nH]c3cc(NC(=O)NC4CCc5ccccc54)ncc23)ccn1 (stereo not shown) [Example 78, 1-(2,3-dihydro-1H-inden-1-yl)-3-[3-(2-methylpyridin-4-yl)-1H-pyrazolo[4,3-c]pyridin-6-yl]urea]"
10,160 nM,COC(=O)[C@@H](NC(=O)Nc1cc2[nH]nc(-c3ccnc(C)c3)c2cn1)C(C)C [Example 460]
11,0.545 nM,Cc1cc(-c2n[nH]c3cc(NC(=O)N[C@@H](c4ccccc4)C4(O)CCCC4)ncc23)ccn1 [Example 531]
12,12.9 nM,O=C(NCc1ccc(F)cc1)Nc1cc2[nH]nc(C3CCC3)c2cn1 [Example 146]
13,0.469 nM,C[C@@H](NC(=O)Nc1cc2[nH]nc(-c3cnn(C)c3)c2cn1)c1ccc(F)cc1 [Example 259]
14,8.27 nM,Cc1cc(-c2n[nH]c3cc(NC(=O)N[C@H]4CN(C)C[C@@H]4C4CC4)ncc23)ccn1 [Example 209]
15,1.86 nM,CN1C[C@@H](NC(=O)Nc2cc3[nH]nc(-c4ccc(F)cc4)c3cn2)[C@H](c2ccccc2)C12COC2 [Example 557]
16,0.357 nM,Cc1cc(-c2n[nH]c3cc(NC(=O)NC(CN)c4ccc(F)cc4)ncc23)ccn1 (stereo not shown) [Example 522]
17,1.58 nM,CN1CCOC(CNC(=O)Nc2cc3[nH]nc(-c4ccc(F)cc4)c3cn2)C1 (stereo not shown) [Example 226]
18,0.171 nM,Cc1cc(-c2n[nH]c3cc(NC(=O)N[C@@H]4CN(C)C[C@H]4c4ccccc4F)ncc23)ccn1 [Example 184]
19,237 nM,Cc1cc(-c2n[nH]c3cc(NC(=O)N[C@@H](C)C(=O)O)ncc23)ccn1 [Example 454]
20,0.159 nM,"C[C@@H](NC(=O)Nc1cc2[nH]nc(-c3ccc(=O)n(C)c3)c2cn1)c1ccc(F)cc1 [Example 71, 1-[(1R)-1-(4-fluorophenyl)ethyl]-3-[3-(1-methyl-6-oxo-1,6-dihydropyridin-3-yl)-1H-pyrazolo[4,3-c]pyridin-6-yl]urea]"

row,IC50,SMILES
1,899 nM,"COCCN(Cc1cccnc1)C(=O)Nc1cc2[nH]nc(-c3ccnc(C)c3)c2cn1 [Example 50, 1-(2-methoxyethyl)-3-[3-(2-methylpyridin-4-yl)-1H-pyrazolo[4,3-c]pyridin-6-yl]-1-(pyridin-3-ylmethyl)urea]"
2,7.33 nM,COC[C@@H](NC(=O)Nc1cc2[nH]nc(-c3ccnc(C)c3)c2cn1)c1cc(F)ccn1 [Example 169]
3,1.06 nM,"C[C@@H](NC(=O)Nc1cc2[nH]nc(-c3ccc(C#N)cc3)c2cn1)c1ccccc1 [Example 66, 1-[3-(4-cyanophenyl)-1H-pyrazolo[4,3-c]pyridin-6-yl]-3-[(1R)-1-phenylethyl]urea]"
4,2.66 nM,C[C@@H](NC(=O)Nc1cc2[nH]nc(C3CC3C(=O)O)c2cn1)c1ccccc1 (stereo partly shown) [Example 660]
5,2450 nM,Cc1cc(-c2n[nH]c3cc(NC(=O)N(C)C4CCCCC4)ncc23)ccn1 [Example 576]
6,6.18 nM,Cc1cc(-c2n[nH]c3cc(NC(=O)NC4CCCC(O)C4)ncc23)ccn1 (stereo not shown) [Example 380]
7,5.26 nM,COc1cncc(-c2n[nH]c3cc(NC(=O)N[C@H](C)c4ccc(F)cc4)ncc23)n1 [Example 251]
8,31.2 nM,COC(=O)[C@@H](C)NC(=O)Nc1cc2[nH]nc(-c3ccnc(C)c3)c2cn1 [Example 461]
9,11.9 nM,COCCOC[C@@H](NC(=O)Nc1cc2[nH]nc(-c3cc(C)on3)c2cn1)c1ccccc1 [Example 700]
10,0.315 nM,O=C(Nc1ncc2c(-c3ccncc3)n[nH]c2c1F)N[C@H](CO)c1ccccc1 [Example 548]
11,0.448 nM,Cc1cc(-c2n[nH]c3cc(NC(=O)N[C@H]4CCN(CC(F)(F)F)C4)ncc23)ccn1 [Example 327]
12,175 nM,O=C(Nc1cc2[nH]nc(C(F)F)c2cn1)NC1Cc2ccccc2C1O (stereo not shown) [Example 696]
13,2.79 nM,Cc1cc(-c2n[nH]c3cc(NC(=O)NCc4ccc5[nH]cnc5c4)ncc23)ccn1 [Example 368]
14,1.07 nM,Cc1cc(-c2n[nH]c3cc(NC(=O)NCCC4COc5ccccc5O4)ncc23)ccn1 (stereo not shown) [Example 373]
15,2 nM,Cc1cc(-c2n[nH]c3cc(NC(=O)NCc4nc5ccccc5[nH]4)ncc23)ccn1 [Example 408]
16,1.16 nM,"C[C@@H](NC(=O)Nc1cc2[nH]nc(-c3ccc4c(c3)OCCO4)c2cn1)c1ccccc1 [Example 88, 1-[3-(2,3-dihydro-1,4-benzodioxin-6-yl)-1H-pyrazolo[4,3-c]pyridin-6-yl]-3-[(1R)-1-phenylethyl]urea]"
17,4.51 nM,Cc1cc(-c2n[nH]c3cc(NC(=O)N[C@@H]4[C@H](CO)[C@H]5CC[C@@H]4O5)ncc23)ccn1 [Example 367]
18,25.4 nM,CCO[C@@H]1CN(C)C[C@H]1NC(=O)Nc1cc2[nH]nc(-c3ccc(F)cc3)c2cn1 [Example 320]
19,6.52 nM,COc1cc(-c2n[nH]c3cc(NC(=O)N[C@H](C)c4ccc(F)cc4)ncc23)ccn1 [Example 310]

# Same assay, conditions: read-out: AERK2 IC50 (Active human ERK2 Activity Assay)
row,IC50,SMILES
1,0.2 to 1.7 nM,"C[C@@H](NC(=O)Nc1cc2[nH]nc(-c3cnn(C)c3)c2cn1)c1ccc(Cl)cc1 [Example 59, 1-[(1R)-1-(4-chlorophenyl)ethyl]-3-[3-(1-methyl-1H-pyrazol-4-yl)-1H-pyrazolo[4,3-c]pyridin-6-yl]urea]"
2,0.2 to 1.7 nM,"C[C@@H](NC(=O)Nc1cc2[nH]nc(-c3ccc4nn(C)cc4c3)c2cn1)c1ccc(F)cc1 [Example 63, 1-[(1R)-1-(4-fluorophenyl)ethyl]-3-[3-(2-methyl-2H-indazol-5-yl)-1H-pyrazolo[4,3-c]pyridin-6-yl]urea]"
3,0.2 to 1.7 nM,"C[C@@H](NC(=O)Nc1cc2[nH]nc(-c3ccc(=O)n(C)c3)c2cn1)c1ccc(F)cc1 [Example 71, 1-[(1R)-1-(4-fluorophenyl)ethyl]-3-[3-(1-methyl-6-oxo-1,6-dihydropyridin-3-yl)-1H-pyrazolo[4,3-c]pyridin-6-yl]urea]"
4,0.2 to 1.7 nM,"C[C@@H](NC(=O)Nc1cc2[nH]nc(-c3ccc(C#N)cc3)c2cn1)c1ccccc1 [Example 66, 1-[3-(4-cyanophenyl)-1H-pyrazolo[4,3-c]pyridin-6-yl]-3-[(1R)-1-phenylethyl]urea]"
5,0.2 to 1.7 nM,"C[C@@H](NC(=O)Nc1cc2[nH]nc(-c3ccc4c(c3)OCCO4)c2cn1)c1ccccc1 [Example 88, 1-[3-(2,3-dihydro-1,4-benzodioxin-6-yl)-1H-pyrazolo[4,3-c]pyridin-6-yl]-3-[(1R)-1-phenylethyl]urea]"
